Experimental data: article PMC10677270, “2554. What’s Weight Got to Do with It? Prospective Pharmacokinetic/Pharmacodynamic Evaluation of Fixed-Dose Daptomycin” (Open Forum Infectious Diseases, 2023)

Assay: Steady-state pharmacokinetic/pharmacodynamic evaluation of fixed-dose (750 mg) daptomycin in patients with Staphylococcus aureus infections
Protocol: This study evaluated systemic exposure of a fixed dose (750 mg) of DAP in patients with Staphylococcus aureus infections. Methods Adult non-ICU patients with CrCl ≥ 30 mL/min admitted to our academic medical center warranting DAP for a S. aureus infection were eligible for enrollment. DAP 750 mg was infused over 30 minutes every 24 hours. At steady state, concentrations were obtained pre-dose (0.5 hours) and 1, 12, and 24 hours after the start of infusion. Concentrations were measured using a validated LC-MS assay. Pharmacokinetic (PK) analysis was performed using first-order equations and stratified by weight: low (< 65 kg), normal (65-85 kg), and high ( > 85 kg). Therapeutic AUC24 (≥ 666 mg*hr/L) and elevated trough (Cmin > 24.3 mg/L) were the efficacy and safety targets, respectively.

**Q.** For `CCCCCCCCCC(=O)N[C@@H](Cc1c[nH]c2ccccc12)C(=O)N[C@H](CC(N)=O)C(=O)N[C@@H](CC(=O)O)C(=O)N[C@@H]1C(=O)NCC(=O)N[C@@H](CCCN)C(=O)N[C@@H](CC(=O)O)C(=O)N[C@H](C)C(=O)N[C@@H](CC(=O)O)C(=O)NCC(=O)N[C@H](CO)C(=O)N[C@@H]([C@H](C)CC(=O)O)C(=O)N[C@@H](CC(=O)c2ccccc2N)C(=O)O[C@@H]1C` [DAP, daptomycin], which Ke (all patients n=22, DAP 750 mg infused over 30 min every 24 h, LC-MS, first-order equations, median, IQR [0.046, 0.098]) is on record?
**A.** Its Ke is 0.078 h⁻¹.

**Q.** What about the Cmin (all patients n=22, DAP 750 mg infused over 30 min every 24 h, LC-MS, median, IQR [7.3, 29.9]) of the same compound?
**A.** The Cmin was 10500 ng/mL.

**Q.** And the “Therapeutic AUC24 (>= 666 mg*hr/L) achieved, share of patients” value (shortened to “Therapeutic AUC24”) (all patients, 14/22, DAP 750 mg every 24 h, efficacy target)?
**A.** The value was 64%.

**Q.** What about the “Therapeutic AUC24” value (females n=12, DAP 750 mg every 24 h) of the same compound?
**A.** The value was 83%.

**Q.** What about the “Therapeutic AUC24” value (males n=10, DAP 750 mg every 24 h) of the same compound?
**A.** Its value is 40%.
